Test results published in US20080234310A1, “Methods and Compositions for Slowing Aging” (priority 2003, published 2008).

Columns and labels:
[1] = system: ion channels associated with glutamate receptors; experiment: Glutamate-induced uptake of 45Ca into rat brain synaptosomes (calcium-blocking properties); type: biochemical; conditions: glutamate-induced 45Ca uptake, K(43/21); compound 5 μM; 5 min at 30° C.
Procedure: Evaluation of the calcium-blocking properties of the compounds was conducted with P2-fraction of synaptosomes, which were isolated from the brain of newborn (8-11 days) rats according to the protocol described in [Bachurin et al. Neuroprotective and cognition enhancing properties of MK-801 flexible analogs. Structure-activity relationships.//Ann. N.Y. Acad. Sci., 2001, v. 939, pp. 219-235]. In this test, the ability of the compounds to inhibit a specific uptake of calcium ions via ion channels associated with glutamate receptors was determined.
Synaptosomes were placed into the incubation buffer A (132 mM NaCl, 5 mM KCl, 5 mM HEPES) and were kept at 0° C. during the entire experiment. Aliquots of synaptosomes (50 μl) were placed in the media A, containing investigated compounds and a preparation of the radiolabeled calcium, ^45Ca. The calcium uptake was stimulated by the introduction into the media of the 20 μl of the 10 mM solution of glutamate. After a 5 min incubation at 30° C. the reaction was interrupted by a filtration through GF/B filters, which were then triple washed with the cold buffer B (145 mM KCl, 10 mM tris, 5 mM trilon B). Then, filters were subjects for the detection of the radiolabeled calcium. The measurement was conducted using a scintillation counter ‘SL-4000 Intertechnic”. The initial screening was conducted with a concentration of each compound of 5 μM. A specific calcium uptake was calculated using the following equation
where: • Ca1 is a calcium uptake in a control experiment (no glutamate or test compound added); • Ca2 is a calcium uptake in the presence of glutamate only (Glutamate Induced Calcium Uptake—GICU); • Ca3 is a calcium uptake in the presence of a test compound only (no glutamate added); Ca4 is a calcium uptake in the presence of both glutamate and a test compound.

C57/B female mice [2] = experiment: Lifespan: amount of alive animals depending on age, Dimebon in drinking water; type: in vivo; conditions: for Amount of alive animals: 3 mg/kg daily in water
Procedure: (§1) Experiments were conducted with C57/B female mice, starting from their age of 12 months. Mice were kept on cells, 10 animals per a cell. Both control and experimental group included 50 animals in each group. […] The day-night cycle was 12 hours.
(§2) Prior to the experiment, daily and weekly water consumption by the animals in one cell was measured. Dimebon was added in water in such amount that each animal would consume 3 mg/kg of Dimebon per day in average. Bottles with water containing Dimebon were replaced every 7 days. Animals in the control group were receiving pure water.
(§3) Prior to the experiment, all the animals were weighed, and an average weight was determined in every group, every cell, as well as the weight of all animals in every cell. The condition of skin, hair, and eyes were also determined by visual inspection. […] Evaluation of all these parameters was conducted on a monthly basis.
(§4) Statistics was calculated using Student T-test and ‘ Chi-squared’ criteria.
Evaluation of the parameter of the length of life was conducted employing methods used in demography. This parameter was a probability of death in every age group.

[3] = Dynamics in weight of animals depending on age and Dimebon consumption; type: in vivo, mice; conditions: for average weight of animals: 3 mg/kg daily in water
Procedure: as §1, §2, §3, §4

C57/B female mice [4] = experiment: Vision disturbances (development of age-related cataract) depending on age and Dimebon consumption; type: in vivo; conditions: for amount of animals that have cataract: 3 mg/kg daily in water
Procedure: as §1, §2, §3, §4

C57/B female mice [5] = experiment: Disturbances in skin-hair integument (alopecia) depending on age and Dimebon consumption; type: in vivo; conditions: for % of animals that have alopecia: 3 mg/kg daily in water
Procedure: as §1, §2, §3, §4

## 2-dimethyl-2,3,4,5-tetrahydro-1H-pyrido(4,3-b)indol methyl iodide [Compound 8]
[1]
  % Ca to control: 18.0 ± 2.5%

## 2-methyl-5-(2-(6-methyl-3-pyridyl)-ethyl)-2,3,4,5-tetrahydro-1H-pyrido(4,3-b)indol sesquisulfate monohydrate [Compound 5]
[1]
  % Ca to control: 33.5 ± 1.5%

## CCN1CCc2[nH]c3ccccc3c2C1 [Compound 2, 2-ethyl-2,3,4,5-tetrahydro-1H-pyrido(4,3-b)indol]
[1]
  % Ca to control: 36.5 ± 0.5%

## c1ccc(CN2CCc3[nH]c4ccccc4c3C2)cc1 [Compound 3, 2-benzyl-2,3,4,5-tetrahydro-1H-pyrido(4,3-b)indol]
[1]
  % Ca to control: 28.5 ± 2.5%

## Cc1ccc2c(c1)c1c(n2Cc2ccccc2)CCN(C)C1.Cl.Cl [Compound 4, 2,8-dimethyl-5-benzyl-2,3,4,5-tetrahydro-1H-pyrido(4,3-b)indol dihydrochloride]
[1]
  % Ca to control: 22.5 ± 3.5%

## Cc1ccc2c(c1)c1c(n2CCc2ccc(C)nc2)CCN(C)C1.Cl.Cl [Compound 6, 2,8-dimethyl-5-(2-(6-methyl-3-pyridyl)-ethyl)-2,3,4,5-tetrahydro-1H-pyrido(4,3-b)indol dihydrochloride]
[1]
  % Ca to control: 48.5 ± 2.5%
C57/B female mice [2]; age 12 months (start), 50 animals per group
  Amount of alive animals: 50
C57/B female mice [2]; age 13 months
  Amount of alive animals: 50
C57/B female mice [2]; age 14 months
  Amount of alive animals: 49
C57/B female mice [2]; age 15 months
  Amount of alive animals: 48
C57/B female mice [2]; age 16 months
  Amount of alive animals: 47
C57/B female mice [2]; age 17 months
  Amount of alive animals: 47
C57/B female mice [2]; age 18 months
  Amount of alive animals: 42
C57/B female mice [2]; age 19 months
  Amount of alive animals: 39
C57/B female mice [2]; age 20 months
  Amount of alive animals: 35
C57/B female mice [2]; age 21 months
  Amount of alive animals: 32
C57/B female mice [2]; age 22 months
  Amount of alive animals: 28
C57/B female mice [2]; age 23 months
  Amount of alive animals: 25
C57/B female mice [2]; age 24 months
  Amount of alive animals: 18
C57/B female mice [2]; age 25 months
  Amount of alive animals: 11
C57/B female mice [2]; all age groups, 3 mg/kg daily, significant (P<0.05) at 20-23 months
  probability of death versus control group: lower
[3]; 3 mg/kg daily, depletion only in 23 month old animals, variation versus control not significant (P>0.05)
  age-related weight depletion: No weight depletion was observed
[3]; age 12 months (start)
  average weight of animals: 24.7 g
[3]; age 13 months
  average weight of animals: 24.7 g
[3]; age 14 months
  average weight of animals: 24.7 g
[3]; age 15 months
  average weight of animals: 26 g
[3]; age 16 months
  average weight of animals: 25.5 g
[3]; age 17 months
  average weight of animals: 24.7 g
[3]; age 18 months
  average weight of animals: 25.5 g
[3]; age 19 months
  average weight of animals: 26 g
[3]; age 20 months
  average weight of animals: 26 g
[3]; age 21 months
  average weight of animals: 25.6 g
[3]; age 22 months
  average weight of animals: 25.1 g
[3]; age 23 months
  average weight of animals: 24.7 g
[3]; age 24 months
  average weight of animals: 24 g
[3]; age 25 months
  average weight of animals: 23.7 g
C57/B female mice [4]; 3 mg/kg daily, P<0.05 for 13 to 20 months old mice
  amount of animals that had cataract versus control group: significantly less
C57/B female mice [4]; age 12 months (start)
  amount of animals that have cataract: 0%
C57/B female mice [4]; age 13 months
  amount of animals that have cataract: 0%
C57/B female mice [4]; age 14 months
  amount of animals that have cataract: 0%
C57/B female mice [4]; age 15 months
  amount of animals that have cataract: 4%
C57/B female mice [4]; age 16 months
  amount of animals that have cataract: 6%
C57/B female mice [4]; age 17 months
  amount of animals that have cataract: 6%
C57/B female mice [4]; age 18 months
  amount of animals that have cataract: 10%
C57/B female mice [4]; age 19 months
  amount of animals that have cataract: 13%
C57/B female mice [4]; age 20 months
  amount of animals that have cataract: 17%
C57/B female mice [4]; age 21 months
  amount of animals that have cataract: 25%
C57/B female mice [5]; age 12 months (start)
  % of animals that have alopecia: 0%
C57/B female mice [5]; age 13 months
  % of animals that have alopecia: 0%
C57/B female mice [5]; age 14 months
  % of animals that have alopecia: 2%
C57/B female mice [5]; age 15 months
  % of animals that have alopecia: 6%
C57/B female mice [5]; age 16 months
  % of animals that have alopecia: 10%
C57/B female mice [5]; age 17 months
  % of animals that have alopecia: 20%
C57/B female mice [5]; age 18 months
  % of animals that have alopecia: 12%
C57/B female mice [5]; age 19 months
  % of animals that have alopecia: 14%
C57/B female mice [5]; age 20 months
  % of animals that have alopecia: 34%
C57/B female mice [5]; age 21 months
  % of animals that have alopecia: 35%
C57/B female mice [5]; old animals fed Dimebon 3 mg/kg daily, alopecia difference 13th-21st month P<0.05
  development of non-fatal pathologies, such as loss of vision and alopecia: slowing of the development

## CN1CCc2[nH]c3ccccc3c2C1 [Compound 7, 2-methyl-2,3,4,5-tetrahydro-1H-pyrido(4,3-b)indol]
[1]
  % Ca to control: 35.5 ± 2.5%

## CN1CCc2[nH]c3ccc(Br)cc3c2C1.Cl [Compound 9, 2-methyl-8-bromo-2,3,4,5-tetrahydro-1H-pyrido(4,3-b)indol hydrochloride]
[1]
  % Ca to control: 30.0 ± 3.5%
